Data: patent publication EP0900211B1 (PHARMACIA & UPJOHN COMPANY, priority 1996, dated 1997)

Each compound was assayed against Stromelysin (Homo sapiens, UniProt P08254) (assay: MMP inhibition, particle concentration fluorescence assay). Settings: in vitro; fluorescein/biotin substrate; MMP buffer pH 7.5; room temperature.
Assay type: biochemical
Description: Inhibitory activity is evaluated in one or more of the MMP enzymes (stromelysin, gelatinase, and collagenase) in vitro using particle concentration fluorescence assay. An inhibitor binds to MMP enzymes which prevents the degradation of a substrate by stromelysin, gelatinase, or collagenase. The substrate has attached to it a fluorescein and a biotin moiety. The intact substrate then binds to an avidin-coated particle via the biotin moiety. Once the particle is washed and dried, a fluorescent signal is generated since the fluorescent group is attached to the particle. Without an inhibitor present, the substrate is degraded by MMP enzymes and the fluorescein group is removed, therefore, no fluorescent signal can be detected. Testing compounds are dissolved in DMSO to the desired concentration, then the solutions are diluted to 1:5 with MMP buffer (50 mM Tris-HCl, pH 7.5; 150 mM NaCl; 0.02% NaN3). Serial two-fold dilutions of each compound are prepared. A concentrated, activated enzyme solution is transferred into each plate of the testing compounds, and the mixture is incubated at room temperature for 15 minutes. […] At this point, the substrate mixture is mixed with 0.1% avidin-coated polystyrene particles. After 15 minutes, the fluorescence values are measured following filtration and washing of the beads. Ki values are then calculated.

Sequence of Stromelysin (P08254 100-477): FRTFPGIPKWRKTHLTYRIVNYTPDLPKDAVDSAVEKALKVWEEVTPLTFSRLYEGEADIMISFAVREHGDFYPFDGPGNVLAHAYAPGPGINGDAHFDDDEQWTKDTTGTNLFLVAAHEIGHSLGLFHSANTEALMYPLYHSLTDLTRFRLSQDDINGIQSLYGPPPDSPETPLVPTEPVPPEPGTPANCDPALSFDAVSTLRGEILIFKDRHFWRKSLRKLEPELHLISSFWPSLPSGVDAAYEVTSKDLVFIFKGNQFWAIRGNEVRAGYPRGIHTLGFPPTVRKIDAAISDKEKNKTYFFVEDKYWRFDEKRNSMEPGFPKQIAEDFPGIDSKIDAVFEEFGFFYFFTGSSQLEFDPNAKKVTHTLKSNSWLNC

Row | SMILES | Ki [nM]
1 | COC(=O)[C@H](Cc1ccc(N)cc1)NC(=O)Nc1n[nH]c(=S)s1 [Example 59, N-[[(4,5-Dihydro-5-thioxo-1,3,4-thiadiazol-2-yl)amino]carbonyl]-L-(4-aminophenyl)alanine methyl ester] | 2950
2 | O=C(Nc1n[nH]c(=S)s1)N[C@@H](Cc1ccccc1)C(=O)NCc1nc2ccccc2[nH]1 [Example 57, N-(1H-Benzimidazol-2-ylmethyl)-α-[[[(4,5-dihydro-5-thioxo-1,3,4-thiadiazol-2-yl)amino]carbonyl]amino]-(S)-benzenepropanamide] | 640
3 | COC(=O)[C@H](COCc1ccccc1)NC(=O)Nc1n[nH]c(=S)s1 [Example 63, N-[[(4,5-Dihydro-5-thioxo-1,3,4-thiadiazol-2-yl)amino]carbonyl]-O-(phenylmethyl)-L-serine methyl ester] | 2390
4 | CNC(=O)CCNC(=O)[C@H](Cc1ccccc1)NC(=O)Nc1n[nH]c(=S)s1 [Example 43] | 1340
5 | O=C(Nc1n[nH]c(=S)s1)N[C@@H](Cc1ccccc1)C(=O)NCc1ccc([N+](=O)[O-])cc1 [Example 53, α-[[[(4,5-Dihydro-5-thioxo-1,3,4-thiadiazol-2-yl)amino]carbonyl]amino]-N-[(4-nitrophenyl)methyl]-(S)-benzenepropanamide] | 1310
6 | CC(C)C[C@H](NC(=O)Nc1n[nH]c(=S)s1)C(=O)NCCc1ccccc1 [Example 28, 2-[[[(4,5-Dihydro-5-thioxo-1,3,4-thiadiazol-2-yl)amino]-carbonyl]amino]-4-methyl-N-(2-phenylethyl)-(S)-pentanamide] | 3490
7 | COC(=O)[C@H](Cc1ccc(O[Si](C)(C)C(C)(C)C)cc1)NC(=O)Nc1n[nH]c(=S)s1 [Example 47, N-[[(4,5-Dihydro-5-thioxo-1,3,4-thiadiazol-2-yl)amino]carbonyl]-O-[(1,1-dimethylethyl)dimethylsilyl]-L-tyrosine methyl ester] | 6370
8 | COC(=O)[C@H](Cc1ccc(-c2ccccc2)cc1)NC(=O)Nc1n[nH]c(=S)s1 [Example 78, α-[[[(4,5-Dihydro-5-thioxo-1,3,4-thiadiazol-2-yl)amino]carbonyl]amino]-(S)-(1,1'-biphenyl)-4-propanoic acid methyl ester] | 3020
9 | CNC(=O)[C@H](Cc1ccc(-c2ccccc2)cc1)NC(=O)Nc1n[nH]c(=S)s1 [Example 79, α-[[[(4,5-Dihydro-5-thioxo-1,3,4-thiadiazol-2-yl)amino]carbonyl]amino]-N-methyl-(S)-(1,1'-biphenyl)-4-propanamide] | 7390
10 | CC(C)C[C@H](NC(=O)Nc1n[nH]c(=S)s1)C(=O)NCc1ccccc1 [Example 29, 2-[[[(4,5-Dihydro-5-thioxo-1,3,4-thiadiazol-2-yl)amino]carbonyl]amino]-4-methyl-N-(phenylmethyl)-(S)-pentanamide] | 4420
11 | O=C(Nc1n[nH]c(=S)s1)N[C@@H](Cc1ccccc1)C(=O)NCc1ccc2c(c1)OCO2 [Example 49, α-[[[(4,5-Dihydro-5-thioxo-1,3,4-thiadiazol-2-yl)amino]-carbonyl]amino]-N-(piperonyl)-(S)-benzenepropanamide] | 1000
12 | O=C(Nc1n[nH]c(=S)s1)N[C@@H](Cc1ccccc1)C(=O)NCc1ccccn1 [Example 7, α-[[[(4,5-Dihydro-5-thioxo-1,3,4-thiadiazol-2-yl)amino]carbonyl]-amino]-N-(2-pyridinylmethyl)-(S)-benzenepropanamide] | 1100
